In PubChem BioAssay AID2060490 (Molecular Pharmacology Branch, DTP, NCI, 2025):
Values joined by “and” are separate entries in the source; they are usually repeats but may differ in a detail not shown here. Identical values can stand only once.

Tested on: 885512-296-R-J2-PDC complex spheroid viability
Assay: Anticancer human tumor 885512-296-R-J2-PDC patient-derived breast carcinoma cell line growth inhibition [GQUAD]
Details: for viability, T/C: stronger effect = lower value; active = viability on the fitted dose curve at most 10% of control; inactive = the rest
Text: DNA G-quadruplex Stabilizer Agents in Combinations in Complex Spheroids
A high-throughput screen of multi-cell type tumor spheroids was designed to identify active combinations of DNA G-quadruplex stabilizer agents and targeted small molecules. Complex spheroids include a stromal component modeled by human endothelial cells (HUVEC) and fibroblasts modeled by human mesenchymal stem cells (MSCs). The concentration ranges selected for each drug and investigational agent were based upon clinically achievable concentrations if the clinical Cmax of the agent was known.
Compounds. The drugs and investigational agents: pidnarulex (CX-5461; NSC782164), APTO-253 (NSC789042), BRACO-19 (NSC847499), peposertib (NSC802822), ceralasertib (NSC780249), elimusertib (NSC800525), camonsertib (NSC841442), AZD-1390 (NSC803789), olaparib (NSC753686), talazoparib (NSC767125), ART-558 (NSC835418), sotorasib (NSC818433), MRTX-1133 (NSC836407), SN-38 (NSC673596), topotecan (NSC609699), etoposide (NSC141540), doxorubicin (NSC123127), gemcitabine (NSC613327), 5-fluorouracil (NSC19893), paclitaxel (NSC125973), vemurafenib (NSC761431), panobinostat (NSC761190), R-306465 (JNJ-16241199; NSC773264), adavosertib (NSC754352), TP-3654 (NSC805149), carboplatin (NSC241240), KSQ-4279 (NSC840948), and staurosporine (NSC755774) were obtained from the National Cancer Institute (NCI) Developmental Therapeutics Program Chemical Repository (34). The FDA-approved anticancer drug set is available from the NCI Developmental Therapeutics Program. […] The stock solutions were prepared in dimethyl sulfoxide (DMSO, Sigma-Aldrich, St. Louis, MO, cat. D2650) at 800-fold the tested concentration and stored at -70 degrees C prior to their use. All drugs and investigational agents were tested over a range starting from a high concentration at or near the clinical Cmax and decreasing in half-log increments. If the clinical Cmax for an agent had not been determined, the highest concentration tested was 10 microM.
2.3 Cell Culture. All cells were maintained in an incubator at 37 degrees C and 5% CO2 with 95% humidity. The PDC lines were cultured according to standard operating procedures established by the NCI PDMR. All PDCs were thawed and cultured in Matrigel-coated flasks prepared with a working solution of 1X Ham's F-12 nutrient mix, without supplementation (Invitrogen, cat. 11765054), 100 U/mL penicillin-streptomycin (Invitrogen, cat. 15140122), and 2.5% Matrigel (Corning Inc., cat. 354248) for the first three passages. The 857933-349-R-J2-PDC line was cultured in 6C/Colon 1B media, which includes advanced DMEM/F-12 (Thermo Fisher Scientific, cat. 12634028), 10 mM HEPES (Thermo Fisher Scientific, cat. 15630080), 1X GlutaMAX supplement (Thermo Fisher Scientific, cat. 35050061), 0.1 mg/mL primocin (InvivoGen, cat. ant-pm-2), 10% defined fetal bovine serum, heat inactivated (HyClone Laboratories Inc., cat. SH30070.03HI), 50% L-WRN conditioned media (ATCC, cat. CRL-3276), 1.25 mM N-Acetyl-L-cysteine (Sigma-Aldrich, cat. A9165), 10 mM nicotinamide (Sigma-Aldrich, cat. N0636), 1X B-27 supplement (Thermo Fisher Scientific, cat. 17504044), 1X N-2 supplement (Thermo Fisher Scientific, cat. 17502048), 10 microM Y-27632 dihydrochloride (Tocris Bioscience, cat. 1254), and 50 ng/mL human EGF recombinant protein (Thermo Fisher Scientific, cat. PHG0311). The 485176-168-R4-J1-PDC line was cultured in Panc media, which includes all 6C/Colon 1B media components plus 100 ng/mL human FGF-10 (Thermo Fisher Scientific, cat. 100-26), 500 nM SB-431542 (Selleckchem, cat. S1067), and gastrin (Tocris, cat. 3006).
[…]
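Also: spheroids exposed to the compounds for one week.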
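For viability, T/C in this document: percent of tumor spheroid viability relative to DMSO vehicle control wells.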

CC1COCCN1c1cc(-c2ccnn2C)c2ccnc(-c3ccn[nH]3)c2n1 (stereo not given) + Cc1cnc(CNC(=O)c2c(=O)c3ccc(N4CCCN(C)CC4)nc3n3c2sc2ccccc23)cn1
active: viability, T/C (second compound 0.0316 µM, first compound 0.0316 µM) 7.27% | viability, T/C (second compound 0.0316 µM, first compound 0.1 µM) 3% | viability, T/C (second compound 0.0316 µM, first compound 0.316 µM) 3.14% | viability, T/C (second compound 0.0316 µM, first compound 1 µM) 2.98% | viability, T/C (second compound 0.0316 µM, first compound 3.16 µM) 4.32% | viability, T/C (second compound 0.0316 µM, first compound 10 µM) 6.71% | viability, T/C (second compound 0.1 µM, first compound 0.0316 µM) 7.98% | viability, T/C (second compound 0.1 µM, first compound 0.1 µM) 3.24% | viability, T/C (second compound 0.1 µM, first compound 0.316 µM) 2.68% | viability, T/C (second compound 0.1 µM, first compound 1 µM) 3.6% | viability, T/C (second compound 0.1 µM, first compound 3.16 µM) 4.73% | viability, T/C (second compound 0.1 µM, first compound 10 µM) 6.8% | viability, T/C (second compound 0.316 µM, first compound 0.0316 µM) 6.5% | viability, T/C (second compound 0.316 µM, first compound 0.1 µM) 4.72% | viability, T/C (second compound 0.316 µM, first compound 0.316 µM) 4.23% | viability, T/C (second compound 0.316 µM, first compound 1 µM) 4.64% | viability, T/C (second compound 0.316 µM, first compound 3.16 µM) 5.38% | viability, T/C (second compound 0.316 µM, first compound 10 µM) 6.91% | viability, T/C (second compound 1 µM, first compound 0.0316 µM) 7.32% | viability, T/C (second compound 1 µM, first compound 0.1 µM) 5.67% | viability, T/C (second compound 1 µM, first compound 0.316 µM) 4.04% | viability, T/C (second compound 1 µM, first compound 1 µM) 5.5% | viability, T/C (second compound 1 µM, first compound 3.16 µM) 6.49% | viability, T/C (second compound 1 µM, first compound 10 µM) 7.5% | viability, T/C (second compound 3.16 µM, first compound 0.0316 µM) 0.41% | viability, T/C (second compound 3.16 µM, first compound 0.1 µM) 0.9% | viability, T/C (second compound 3.16 µM, first compound 0.316 µM) 0.43% | viability, T/C (second compound 3.16 µM, first compound 1 µM) 5.3% | viability, T/C (second compound 3.16 µM, first compound 3.16 µM) 6.82% | viability, T/C (second compound 3.16 µM, first compound 10 µM) 6.13% | viability, T/C (second compound 10 µM, first compound 0.0316 µM) 0.03% | viability, T/C (second compound 10 µM, first compound 0.1 µM) 0.1% | viability, T/C (second compound 10 µM, first compound 0.316 µM) 0.12% | viability, T/C (second compound 10 µM, first compound 1 µM) 0.06% | viability, T/C (second compound 10 µM, first compound 3.16 µM) 0.1% | viability, T/C (second compound 10 µM, first compound 10 µM) 0.11%
< 31.6 nM: IC50 (curve of first compound, second compound 0.0316 µM) | IC50 (curve of first compound, second compound 0.1 µM) | IC50 (curve of first compound, second compound 0.316 µM) | IC50 (curve of first compound, second compound 1 µM) | IC50 (curve of first compound, second compound 3.16 µM) | IC50 (curve of first compound, second compound 10 µM)

CC(=O)O[C@H]1C(=O)[C@@]2(C)[C@H]([C@H](OC(=O)c3ccccc3)[C@]3(O)C[C@H](OC(=O)[C@H](O)[C@@H](NC(=O)c4ccccc4)c4ccccc4)C(C)=C1C3(C)C)[C@]1(OC(C)=O)CO[C@@H]1C[C@@H]2O
21.6% and 4.6% and 3.99%: viability, T/C (compound 0.316 µM)
inactive: viability, T/C (compound 0.0316 µM) 79.3% and 9.94% and 12.2%
active: viability, T/C (compound 1 µM) 2.5% and 3.51% and 4.61% | viability, T/C (compound 3.16 µM) 0.25% and 3.46% and 2.82% | viability, T/C (compound 10 µM) 0.14% and 3.66% and 4.04%
113 nM and < 31.6 nM: IC50 (curve of compound)

C#Cc1c(F)ccc2cc(O)cc(-c3ncc4c(N5CC6CCC(C5)N6)nc(OCC56CCCN5CC(F)C6)nc4c3F)c12 (stereo not given)
> 10000 nM and 1570 nM: IC50 (curve of compound)
inactive: viability, T/C (compound 0.0316 µM) 107% and 90.4% and 97.3% | viability, T/C (compound 0.1 µM) 97.7% and 92% and 97.9% | viability, T/C (compound 0.316 µM) 109% and 86.7% and 97.7% | viability, T/C (compound 1 µM) 90.1% and 70.5% and 98.3% | viability, T/C (compound 3.16 µM) 106% and 14% and 100% | viability, T/C (compound 10 µM) 83.4% and 22.4% and 90.7%
